Source: patent US20240024274A1, “O-ACETYLSERINE FOR THE USE THEREOF IN THE PREVENTION AND TREATMENT OF GLUCOSE INTOLERANCE AND THE ASSOCIATED DISEASES” (INSTITUT NATIONAL DE RECHERCHE POUR L'AGRICULTURE, …, priority 2020, published 2024)
Entries after “also recorded” stand apart in the source; their conditions may differ.

Experiments:
Format in all cases: in vivo
C57BL/6JRj mice [1] = assay: Oral glucose tolerance test (OGTT) in healthy mice after 5-day OAS treatment; settings: OAS 1000 mg/kg daily for 5 days, vs control group; for area under the curve of the OGTT: glucose 2.5 g/kg oral
Description: Male C57BL/6JRj mice aged 7 weeks from Janvier Labs were fed with a conventional diet used in pet shops. A first group of 10 mice, not treated with OAS, served as a control group. A second group of 10 mice was treated with a daily dose of OAS at 1000 mg/kg for 5 days. The OAS used was the product sold under the name A6262_SIGMA by the company Sigma-Aldrich (CAS No. 66638-22-0). This group is the OAS treatment group. An oral glucose tolerance test (OGTT) was performed on each of the two groups of mice. This test consists of monitoring the plasma glucose concentrations for 120 min, after the mice have received an oral glucose load. Thus, at T0 (fasting blood glucose level), glucose (2.5 g/kg) is given orally to the animal. A drop of blood is taken from the tail every 15 to 30 minutes for 90 minutes to measure the blood glucose level with a strip glucose meter (Accu-Check Perfoma, available in pharmacies). The OGTT was performed on the fifth day of treatment 2 h after the OAS treatment group received a dose of 500 mg/kg. At the time of the OGTT, the mice of the treatment group also received 500 mg/kg of OAS along with the oral glucose load. The control group received only the oral glucose load.

C57BL/6JRj mice [2] = assay: Oral glucose tolerance test (OGTT) in healthy mice, single dose of OAS with the glucose load; settings: single dose OAS 1000 mg/kg along with glucose 2.5 g/kg oral; vs control group
Description: Male C57BL/6JRj mice aged 7 weeks from Janvier Labs were fed with a conventional diet used in pet shops. A first group of 5 mice, not treated with OAS, served as a control group. A second group of 5 mice was treated with a single dose of OAS at 1000 mg/kg. The OAS used was the product sold under the name A6262 SIGMA by the company Sigma-Aldrich (CAS No. 66638-22-0). This group is the OAS treatment group. An oral glucose tolerance test (OGTT) was performed on each of the two groups of mice. This test consists of monitoring the plasma glucose concentrations for 120 min, after the mice have received an oral glucose load. Thus, at T0 (fasting blood glucose level), glucose (2.5 g/kg) is given orally to the animal. […] In the OGTT test, the OAS treatment group received a dose of 1000 mg/kg of OAS along with the oral glucose load. The control group received only the oral glucose load.

[3] = system: C57BL/6JRj mice fed a high fat diet; assay: Oral glucose tolerance test (OGTT) in mice on high fat diet (HFD) treated with OAS
Description: Male C57BL/6JRj mice aged 7 weeks from Janvier Labs were fed a high fat diet (HFD, 45% fat and 20% sucrose) for 12 weeks. […] A first group of 10 mice fed this diet was treated with a daily dose of OAS of 200 mg/kg/d, at a frequency of 5 days per week during the 12 weeks of diet. The OAS used was the product sold as A6262_SIGMA by Sigma-Aldrich (CAS No. 66638-22-0). This group is the HFD+OAS group. […] This is the HFD group. […] An oral glucose tolerance test (OGTT) was performed on each of the three groups of mice. This test consists of monitoring the plasma glucose concentrations for 120 min, after the mice have received an oral glucose load. Thus, at T0 (fasting blood glucose), glucose (2 g/kg) is given orally to the animal. A drop of blood is taken from the tail every 30 minutes for 120 minutes so as to measure the blood glucose level with a strip glucose meter (Accu-Check Perfoma, available in pharmacies). Glucose tolerance is a reflection of the body's ability to regulate the return to a normal blood glucose level after a glucose load. The OGTT was performed at 5 weeks and 9 weeks after the start of the obesogenic diet. The results of this test show the installation of glucose intolerance as early as 5 weeks in the groups of mice on the HFD diet.

[4] = Epididymal adipose tissue weight of HFD mice after 12 weeks of diet and treatment; settings: after 12 weeks of HFD and OAS 200 mg/kg/d, ****p<0.0001
Description: Male C57BL/6JRj mice aged 7 weeks from Janvier Labs were fed a high fat diet (HFD, 45% fat and 20% sucrose) for 12 weeks. […] A first group of 10 mice fed this diet was treated with a daily dose of OAS of 200 mg/kg/d, at a frequency of 5 days per week during the 12 weeks of diet. The OAS used was the product sold as A6262_SIGMA by Sigma-Aldrich (CAS No. 66638-22-0). This group is the HFD+OAS group. […] This is the HFD group. […] These features are indicative of an establishment of obesity in the mice (FIG. 1).

CC(=O)OC[C@H](N)C(=O)O [OAS, O-acetylserine]
fasting blood glucose level (C57BL/6JRj mice [1]; conventional diet): tended to be lower; also recorded: decreases
blood glucose levels after the oral glucose load (hyperglycemia induced by an oral glucose load) (C57BL/6JRj mice [1]; 15 min, 30 min and 60 min after glucose 2.5 g/kg oral): significantly lower; also recorded: significantly decreases; also recorded: significant
area under the curve of the OGTT (C57BL/6JRj mice [1]): significant
area under the curve of the OGTT (C57BL/6JRj mice [1]; listed as O-acetylserine): lower than that of the control group
area under the curve of the OGTT (C57BL/6JRj mice [2]): lower area under the curve than the control group; also recorded: significant
blood glucose levels at 15 min after the oral glucose load (C57BL/6JRj mice [2]): significantly lower; also recorded: significantly decreases
effect on glucose intolerance (OGTT) ([3]; HFD mice, OAS 200 mg/kg/d 5 days per week, after 5 weeks): no visible effect
glucose intolerance (OGTT) ([3]; HFD mice, OAS 200 mg/kg/d 5 days per week, after 9 weeks): significantly decreases
difference in area under the curve of the OGTT between control group and HFD+OAS group ([3]; after 5 weeks, ****p<0.0001): significant
difference in area under the curve of the OGTT between HFD group and HFD+OAS group ([3]; after 9 weeks, *p<0.05): significant
difference in plasma glucose concentration between control group and HFD+OAS group ([3]; after 9 weeks, from t=60 min after oral glucose load): no longer significant
difference in plasma glucose concentration between HFD group and HFD+OAS group ([3]; after 9 weeks, t=30 min after oral glucose load, p<0.0001): significant
difference in epididymal adipose tissue weight between control group and HFD+OAS group [4]: statistically significant
